According to US20210379106A1, “OXABICYCLOHEPTANES FOR ENHANCING CAR T CELL FUNCTION” (Lixte Biotechnology, Inc., priority 2018, published 2021):

Columns and labels:
CD19 CAR T cells = experiment: IFNγ intracellular staining / flow cytometry of CD19CAR T cells after co-culture with CD19+ tumor cells; type: cell-based; settings: for percentage of CAR+/CD8+/INFγ+: 0.5 μM LB-100, 1.0 μg/mL Nivo
Method: FIG. 1. Generation of CD19 CAR T cells PBMC from healthy donor were activated with CD3/CD28 beads and transduced with lentivirus encoding second generation of CD19CAR containing costimulatory signaling CD28. After 14 days of ex vivo expansion, percentages of CD8 and CAR positive T cells were determined by flow cytometry.
FIG. 2. […] Post treatment, 0.1×10^6 CD19 CART cells were then co-cultured with 0.1×10^6 different CD19+ tumor cells for 24 hours followed by surface staining of CAR and CD8 and intracellular staining of IFN-γ. Percentages of IFNγ+CD8+ CAR T cells in gated CAR positive population are presented.
FIG. 3. […] Post treatment, 0.1×10^6 CD19CAR T cells were then co-cultured with 0.1×10^6 CD19+Daudi lymphoma cells for 24 hours followed by surface staining of CAR and CD8 and intracellular staining of IFN-γ. Percentages of IFN-γ+CD8+ CAR T cells (A) and FACS plots (B) in gated CAR positive population are presented.
FIG. 4. […] Post treatment, 0.1×10^6 CD19CAR T cells were then co-cultured with 0.1×10^6 different CD19+ tumor cells for 24 hours followed by surface staining of CAR and CD8 and intracellular staining of IFN-γ. Myeloid leukemic cells (KG1a) were used as negative control. Percentages of IFN-γ+CD8+ CAR T cells in gated CAR positive population are presented.
We assessed the effects of LB-100 and Nivo on CD19 CART cell function. Propagated CD19CAR T cells were stimulated with dynal beads coated with antibody against CD19 (FMC63) at 1:1 ratio for five days and cultured under the following conditions: CD19CAR T cell alone, CD19CAR+ 0.5 μM LB-100, CD19CAR+ 1.0 μg/mL Nivo, and CD19CAR with combination of LB-100 and Nivo. Drugs were supplemented into the culture every other day. Functional assay was performed six days after treatment. The cells were then co-cultured with the different CD19+ ALL cells SupB15 and different lymphoma Daudi and Raji cells overnight. Cells were then stained for Interferon-gamma (IFNγ) followed by flow cytometry analysis. Acute myeloid leukemia (AML) cells KG1a were used as negative controls. […] To test the antitumor activity of the combinatorial therapy in vivo we established an acute lymphoid leukemia (ALL) model by inoculating SupB15-GFP-ffluc cells into NSG mice, 5 days after tumor engraftment, mice were treated with CD19CAR T cells by intravenous injection, along with intraperitoneally injections of LB100 (4 μg/mouse), Nivo (200 μgm/mouse) or LB100+Nivo every other day as combination therapy.

PP2A = PP2A (Homo sapiens, UniProt P67775); settings: cited from earlier work
[1] = system: cell lines from a variety of human solid tumors; settings: cited from earlier work
solid tumor = settings: largest phase 1 trial, cited from earlier work

Sequence of PP2A (P67775 whole entry): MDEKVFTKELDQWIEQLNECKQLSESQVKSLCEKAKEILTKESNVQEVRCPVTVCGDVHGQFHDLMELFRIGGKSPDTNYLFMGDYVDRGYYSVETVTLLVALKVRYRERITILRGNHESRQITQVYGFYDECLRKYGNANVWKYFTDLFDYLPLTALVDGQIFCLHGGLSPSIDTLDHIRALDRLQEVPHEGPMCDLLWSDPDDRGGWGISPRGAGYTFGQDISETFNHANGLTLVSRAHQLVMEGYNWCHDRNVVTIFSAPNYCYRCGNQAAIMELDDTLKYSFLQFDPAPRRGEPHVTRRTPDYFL

SMILES: CN1CCN(C(=O)C2C(C(=O)O)[C@H]3CC[C@@H]2O3)CC1 (stereo partly shown) [LB-100]
- effector function of CD19CAR T cells (IFNγ+CD8+ CAR T cells) (CD19 CAR T cells; FIG. 2, CD19 antibody coated beads, different concentrations of LB100 on days 1, 3 and 5, different CD19+ tumor cells 24 hours): improves effector function of CD19CAR T cells in a dose dependent manner
- percentage of CAR+/CD8+/INFγ+ (CD19 CAR T cells; co-cultured with Daudi cells overnight, CD19 antibody bead stimulation): 10.99%
- percentage of CAR+/CD8+/INFγ+ (CD19 CAR T cells; co-cultured with Raji cells overnight, CD19 antibody bead stimulation): 10.30%
- percentage of CAR+/CD8+/INFγ+ (CD19 CAR T cells; co-cultured with SupB15 cells overnight, CD19 antibody bead stimulation): 10.14%
- percentage of CAR+/CD8+/INFγ+ (CD19 CAR T cells; corresponding treatment, co-cultured with KG1A AML cells (negative control)): 6.33%
- percentage of CAR+/CD8+/INFγ+ (CD19 CAR T cells; corresponding treatment, media alone (no tumor cells)): 7.28%
- inhibition of PP2A (PP2A): potent inhibitor of PP2A
- proliferation of cell lines [1]: inhibit proliferation

SMILES: O=C1OC(=O)[C@H]2[C@@H]1[C@@H]1CC[C@H]2O1 [norcantharidin]
- inhibition of PP2A (PP2A): potent inhibitorsof PP2A

SMILES: C[C@@](O)(/C=C/[C@H]1CC=CC(=O)O1)[C@@H](C[C@@H](O)\C=C/C=C\C=C\CO)OP(=O)(O)O [fostriecin, Fostriecin]
- dose-limiting toxicity (DLT) (solid tumor; 46 solid tumor patients): without dose-limiting toxicity
- disease stability, share of solid tumor patients (solid tumor; 16 of 46 patients): 34.8%

SMILES: C[C@@]12C(=O)OC(=O)[C@]1(C)[C@H]1CC[C@@H]2O1 [Cantharidin]
- inhibition of PP2A (PP2A): potent inhibitor of PP2A

SMILES: CCN1CCCC1CNC(=O)c1cc(S(=O)(=O)CC)c(NC)cc1OC (stereo not shown) [LB-102]
- proliferation of cell lines [1]: inhibit proliferation
